Assay results taken from patent publication US6562978B1, “Cyclic amine compounds as CCR5 antagonists” (Takeda Chemical Industries, Ltd., priority 1999, dated 2003).
Structures can show the parent of a compound that is named as a salt.

The compounds below were run against T1, human CCR5 (Homo sapiens, UniProt P51681) (assay: CCR5 binding assay: inhibition of [125I]-RANTES binding to CHO/CCR5 cells). Conditions: 1.0 μM test compound, 100 pM [125I]-RANTES, room temperature 40 minutes.
T1 construct: expressed in transfected cells; whole cells in the well
T1 sequence (P51681 whole entry): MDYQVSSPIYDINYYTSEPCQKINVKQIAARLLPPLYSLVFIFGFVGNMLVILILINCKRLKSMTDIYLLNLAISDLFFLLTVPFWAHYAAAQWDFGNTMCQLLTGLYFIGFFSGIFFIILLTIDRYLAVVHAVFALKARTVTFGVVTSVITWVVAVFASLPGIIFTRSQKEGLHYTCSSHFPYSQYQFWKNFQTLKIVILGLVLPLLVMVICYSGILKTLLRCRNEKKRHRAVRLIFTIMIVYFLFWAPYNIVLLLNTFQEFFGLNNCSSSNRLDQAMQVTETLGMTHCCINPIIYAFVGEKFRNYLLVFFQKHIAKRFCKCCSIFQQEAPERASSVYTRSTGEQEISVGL
Method: (1) Cloning of Human CCR5 Chemokine Receptor
Cloning of CCR5 gene was carried out by PCR (polymerase chain reaction) from human spleen cDNA. With using 0.5 ng of spleen cDNA (Toyobo, QUICK-Clone cDNA) as template, PCR was performed in DNA Thermal Cycler 480 (Perkin-Elmer) (reaction conditions: 30 cycles of 95° C. for 1 minute, 60° C. for 1 minute, and 75° C. for 5 minutes) by adding primer set, 5′-[…]-3′ (25 pmol) and 5′-[…]-3′ (25 pmol), which were designed referring to nucleotide sequence of CCR5 gene reported by Samson et al. (Biochemistry, 35(11), 3362-3367 (1996)) and by using TaKaRa EX Taq (Takara Shuzo). The resultant PCR product was subjected to agarose gel electrophoresis to collect about 1.0 kb DNA fragment, which was subjected to Original TA Cloning Kit (Funakoshi) to carry out cloning of CCR5 gene.
(2) Preparation of Plasmid for Expression of Human […]
The plasmid obtained in the above (1) was digested with restriction enzymes XbaI (Takara Shuzo) and BamHI (Takara Shuzo) and subjected to agarose gel electrophoresis to collect about 1.0 kb DNA fragment. The DNA fragment was mixed with plasmid pcDNA3.1 (Funakoshi) for expression in animal cells, said plasmid being digested with XbaI and BamHI, and they were ligated with DNA Ligation Kit Ver.2 (Takara Shuzo). The resulting plasmid was subjected to transformation of competent cell of E. coli JM109 (Takara Shuzo) to obtain plasmid pCKR5.
(3) Introduction of Plasmid for Expression of Human CCR5 into CHO-K1 Cell and Expression of said Plasmid in CHO-KY Cell
CHO-K1 cells were grown in 750 ml of tissue culture flask (Becton Dickinson) using Ham's F12 medium (Nihon Pharmaceutical) containing 10% fetal calf serum (Life Tech Oriental) and took off with 0.5 g/L trypsin-0.2 g/L EDTA (Life Tech Oriental). The cells were washed with PBS (Life Tech Oriental), centrifuged (1000 rpm, 5 minutes), and suspended in PBS. With using Gene Pulser (Bio-Rad Laboratories), DNA was introduced into the cells under the conditions shown below. That is, to the cuvette of 0.4 cm gap were added 8×10^6 cells and 10 μg of plasmid pCKR5 for expression of human CCR5, and electroporation was carried out under 0.25 kV of voltage and […] of capacitance. The cells were transferred into Ham's F12 medium (Nihon Pharmaceutical) containing 10% fetal calf serum, and cultivated for 24 hours. The cells were again took off and centrifuged, and suspended in Ham's F12 medium (Nihon Pharmaceutical) containing 10% fetal calf serum and 500 μg/ml of geneticin (Life Tech Oriental). The suspension was diluted to give 10^4 cells/ml of the suspension, which was inoculated on 96 well plate (Becton Dickinson) to give geneticin resistant cells. The resulting geneticin resistant cells were cultivated in 96 well plate (Becton Dickinson), and cells expressing CCR5 were selected from the geneticin resistant cells. That is, in assay buffer (Ham's F12 medium containing 0.5% BSA and 20 mM HEPES (Wako Pure Chemical, pH7.2) to which was added 200 pM of [^125I]-RANTES (Amersham) as ligand, binding reaction was carried out at room temperature for 40 minutes, and the buffer was washed with cooled PBS. To the buffer was added 50 μl/well of 1M NaOH, and the mixture was stirred. Radioactivity was determined with γ-counter to select CHO/CCR5 cells which specifically bind to the ligand.
(4) Evaluation of Test Compounds Based on CCR5 Antagonistic Activity
The CHO/CCR5 were inoculated on 96 well microplate (5×10^4 cells/well) and cultivated for 24 hours. The medium was removed by means of suction, and to each well was added assay buffer containing Test Compound (191) and then 100 pM of [^125I]-RANTES (Amersham) as ligand. Binding assay was carried out at room temperature for 40 minutes, and assay buffer was removed by means of suction. Each well was washed twice with cooled PBS, and 200 μl of Microscint-20 (Packard Instrument, Inc.) was added to each well.

| Compound | Inhibition Rate (%) at 1.0 μM |
| --- | --- |
| CC(=O)N1CCC(C(=O)N(CCCN2CCC(Sc3nc4ccccc4s3)CC2)c2ccc(Cl)c(Cl)c2)CC1 [Example 224] | 97% |
| CC(=O)N1CCC(C(=O)N(CCCN2CCN(Cc3c(C)noc3C)CC2)c2cccc(Cl)c2)CC1.O=C(O)C(F)(F)F.O=C(O)C(F)(F)F [Example 272, 1-Acetyl-N-(3-chlorophenyl)-N-(3-{4-[(3,5-dimethylisoxazol-4-yl)methyl]-1-piperazinyl}propyl)-4-piperidinecarboxamide 2 Trifluoroacetate] | 96% |

Same assay, conditions: 1.0 μM test compound, 100 pM [125I]-RANTES, room temperature 40 minutes, read-out: Inhibition Rate (%) at 1.0 μM

| Compound | inhibition at 1 µM |
| --- | --- |
| CC(=O)N1CCC(C(=O)N(CCCN2CCC(Cc3ccccc3)CC2)c2ccccc2)CC1 [Example 3, 1-Acetyl-N-[3-(4-benzyl-1-piperidinyl)propyl]-N-phenyl-4-piperidinecarboxamide] | 98% |
| CS(=O)(=O)N1CCC(NC(=O)N(CCCN2CCC(Cc3ccccc3)CC2)c2ccccc2)CC1 [Example 15, N-[3-(4-Benzyl-1-piperidinyl)propyl]-N′-[1-(methylsulfonyl)-4-piperidinyl]-N-phenylurea] | 97% |
| CC(=O)N1CCC(C(=O)N(CCCN2CCC(Cc3ccc(F)cc3)CC2)c2cccc(Cl)c2)CC1 [Example 18, 1-Acetyl-N-(3-chlorophenyl)-N-{3-[4-(4-fluorobenzyl)-1-piperidinyl]propyl}-4-piperidinecarboxamide] | 87% |
| CN(C)C(=O)N1CCC(C(=O)N(CCCN2CCC(Cc3ccccc3)CC2)c2ccc(Cl)c(Cl)c2)CC1 [Example 27, N-[3-(4-Benzyl-1-piperidinyl)propyl]-N-(3,4-dichlorophenyl)-1-(N,N-dimethylcarbamoyl)-4-piperidinecarboxamide] | 99% |
| CC(=O)N1CCC(C(=O)N(CCCN2CCC(Cc3ccccc3)CC2)Cc2ccc(Cl)cc2)CC1 [Example 40, 1-Acetyl-N-[3-(4-benzyl-1-piperidinyl)propyl]-N-(4-chlorobenzyl)-4-piperidinecarboxamide Trifluoroacetate] | 98% |
| CC(=O)N1CCC(C(=O)N(CCCN2CCN(Cc3ccc4c(c3)OCO4)CC2)c2cccc(Cl)c2)CC1 [Example 57, 1-Acetyl-N-(3-chlorophenyl)-N-[3-(4-piperonyl-1-piperazinyl)propyl]-4-piperidinecarboxamide Trifluoroacetate] | 96% |
| CC(=O)N1CCC(C(=O)N(CCCN2CCC(Sc3cnccn3)CC2)c2cccc(Cl)c2)CC1 [Example 79, 1-Acetyl-N-(3-chlorophenyl)-N-[3-[4-(2-pyrazinylthio)-1-piperidinyl]propyl]-4-piperidinecarboxamide Trifluoroacetate] | 90% |
| CC(=O)N1CCC(C(=O)N(CCCN2CCC(On3nnc4ccccc43)CC2)c2cccc(Cl)c2)CC1 [Example 88, 1-Acetyl-N-(3-chlorophenyl)-N-[3-[4-(1H-benzotriazol-1-yloxy)-1-piperidinyl]propyl]-4-piperidinecarboxamide Trifluoroacetate] | 99% |
| CC(C)S(=O)(=O)N1CCC(C(=O)N(CCCN2CCC(Cc3ccc(F)cc3)CC2)c2ccc(Cl)c(Cl)c2)CC1 [Example 92, N-(3,4-Dichlorophenyl)-N-{3-[4-(4-fluorobenzyl)-1-piperidinyl]propyl}-1-(isopropylsulfonyl)-4-piperidinecarboxamide Trifluoroacetate] | 92% |
| NC(=O)C(=O)N1CCC(C(=O)N(CCCN2CCC(Cc3ccc(F)cc3)CC2)c2ccc(Cl)c(Cl)c2)CC1 [Example 150, N-(3,4-Dichlorophenyl)-N-{3-[4-(4-fluorobenzyl)-1-piperidinyl]propyl}-1-oxamoyl-4-piperidinecarboxamide Trifluoroacetate] | 98% |
| CC(=O)Nc1ccc(C(=O)N2CCC(C(=O)N(CCCN3CCC(Cc4ccc(F)cc4)CC3)c3ccc(Cl)c(Cl)c3)CC2)cc1 [Example 158, 1-[4-(Acetylamino)benzoyl]-N-(3,4-dichlorophenyl)-N-{3-[4-(4-fluorobenzyl)-1-piperidinyl]propyl}-4-piperidinecarboxamide Trifluoroacetate] | 97% |
| CC(=O)N1CCC(C(=O)N(CCCN2CCC(Cc3nccs3)CC2)c2cccc(Cl)c2)CC1 [Example 168, 1-Acetyl-N-(3-chlorophenyl)-N-{3-[4-(2-thiazolylmethyl)-1-piperidinyl]propyl}-4-piperidinecarboxamide Ditrifluoroacetate] | 82% |
| CC(=O)N1CCC(C(=O)N(CCCN2CCC(S(=O)(=O)c3ccc(F)cc3)CC2)c2ccc(Cl)c(Cl)c2)CC1 [Example 189, 1-Acetyl-N-(3,4-dichlorophenyl)-N-{3-[4-(4-fluorophenylsulfonyl)-1-piperidinyl]propyl}-4-piperidinecarboxamide] | 100% |
| CS(=O)(=O)N1CCC(C(=O)N(CCCN2CCC(S(=O)(=O)c3ccc(F)cc3)CC2)c2ccc(Cl)c(Cl)c2)CC1 [Example 190, N-(3,4-Dichlorophenyl)-N-{3-[4-(4-fluorophenylsulfonyl)-1-piperidinyl]propyl}-1-(methylsulfonyl)-4-piperidinecarboxamide] | 100% |
| CC(=O)N1CCC(C(=O)N(CCCN2CCC(Nc3ccc(C#N)cc3)CC2)c2ccc(Cl)c(Cl)c2)CC1 [Example 211, 1-Acetyl-N-{3-[4-(4-cyanoanilino)-1-piperidinyl]propyl}-N-(3,4-dichlorophenyl)-4-piperidinecarboxamide] | 90% |
| CC(=O)N1CCC(C(=O)N(CCCN2CCC(Cc3ccc(S(N)(=O)=O)cc3)CC2)c2ccc(Cl)c(Cl)c2)CC1 [Example 243, 1-Acetyl-N-(3-{4-[4-(aminosulfonyl)benzyl]-1-piperidinyl}propyl)-N-(3,4-dichlorophenyl)-4-piperidinecarboxamide] | 99% |
| CS(=O)(=O)N1CCC(C(=O)N(CCCN2CCC(Cc3ccc(S(N)(=O)=O)cc3)CC2)c2ccc(Cl)c(Cl)c2)CC1 [Example 244, N-(3-{4-[4-(Aminosulfonyl)benzyl]-1-piperidinyl}propyl)-N-(3,4-dichlorophenyl)-1-(methylsulfonyl)-4-piperidinecarboxamide] | 100% |
| COc1ccc(CC2CCN(CCCN(C(=O)C3CCN(C(C)=O)CC3)c3ccc(Cl)c(Cl)c3)CC2)cc1 [Example 249, 1-Acetyl-N-(3,4-dichlorophenyl)-N-{3-[4-(4-methoxybenzyl)-1-piperidinyl]propyl}-4-piperidinecarboxamide] | 94% |
| COc1ccc(CC2CCN(CCCN(C(=O)C3CCN(S(C)(=O)=O)CC3)c3ccc(Cl)c(Cl)c3)CC2)cc1 [Example 250, N-(3,4-Dichlorophenyl)-N-{3-[4-(4-methoxybenzyl)-1-piperidinyl]propyl}-1-(methylsulfonyl)-4-piperidinecarboxamide] | 96% |
| CS(=O)(=O)N1CCC(C(=O)N(CCCN2CCC(Cn3cnc4ccccc43)CC2)c2ccc(Cl)c(Cl)c2)CC1 [Example 261, N-{3-[4-(1H-Benzimidazol-1-ylmethyl)-1-piperidinyl]propyl}-N-(3,4-dichlorophenyl)-1-methylsulfonyl-4-piperidinecarboxamide] | 98% |
| CC(=O)N1CCC(C(=O)N(CCCN2CCC(n3nnc4ccccc43)CC2)c2cccc(Cl)c2)CC1 [Example 289, 1-Acetyl-N-{3-[4-(1H-1,2,3-benzotriazol-1-yl)-1-piperidinyl]propyl}-N-(3-chlorophenyl)-4-piperidinecarboxamide] | 83% |
